According to patent US9023841B2, “Compositions and methods for the treatment of asthma and associated disorders” (University of Southern California, priority 2011, dated 2015):
“Also recorded” adds a separate entry of the source.

Tests used:
BALB/c mice [1] = experiment: Acute OVA-induced AHR (PenH, methacholine challenge), a4-vFLIP peptide; type: in vivo; conditions: acute OVA model, 300 μg i.p. days 11 to 13, compared to OVA+TAT pep, P<0.003
Procedure: Briefly on day 1, naïve BALB/c mice (N=5 per group) received an intraperitoneal (i.p.) injection with ovalbumin (OVA) ([…]) in Alum (2 mg). After resting for 10 days, mice were treated intranasally (i.n.) with OVA (50 μg) and i.p. with the autophagy inducer α4-TAT-vFLIP ([…]) on days 11 to 13. On day 14, the enhanced pause (PenH) variable was measured to determine airway hyperreactivity (AHR).
Briefly, administration of alpha4-TAT-vFLIP (a.k.a. a4-vFLIP) peptide restores lung function in an acute model of OVA induced asthma. Increasing doses of methacholine, a muscarinic receptor agonist to induce AHR, was administered to the different treatment groups of mice and the PenH was determined. […] Ctrl group (dark triangles) after methacholine challenge. […] Therefore, the autophagy peptide inducer a4-vFLIP was able to reduce AHR after OVA challenge.

BALB/c mice [2] = experiment: Chronic OVA-induced AHR (PenH); type: in vivo; conditions: TAT as irrelevant peptide control
Procedure: BALB/c mice were treated with OVA to induce chronic AHR and administered a4-TAT-vFLIP (as autophagy inducer) and TAT (as irrelevant peptide, control). AHR was assessed by Pen H (enhanced pause).

BALB/c mice [3] = experiment: Lung histology (hematoxylin and eosin), HDM model; type: in vivo; conditions: HDM+vFLIP compared to HDM alone
From the text: (§1) Thereafter, lung sections were stained with hematoxylin and eosin (HE) from the different groups in the HDM and OVA models. Airway inflammation and remodeling were decreased in the HDM/OVA+vFLIP compared to OVA/HDM alone based on smooth muscle hyperplasia, epithelial cell proliferation, subepithelial fibrosis and basement membrane thickening.

BALB/c mice [4] = experiment: Lung histology (hematoxylin and eosin), OVA model; type: in vivo; conditions: OVA+vFLIP compared to OVA alone
From the text: as §1

BALB/c mice [5] = experiment: Acute HDM-induced AHR (PenH, methacholine challenge), a4-vFLIP peptide; type: in vivo; conditions: acute HDM model, 300 μg i.p. days 13 to 15, compared to HDM+TAT pep, P<0.003
Procedure: FIG. 9D illustrates a protocol to induce acute AHR by HDM. On day 1, naïve BALB/c mice (N=5 per group) received an intranasal (i.n.) injection with house dust mite (HDM) ([…]). After resting for 6 days, mice were treated intranasally (i.n.) with HDM ([…]) from days 7 to 14 and i.p. with the autophagy inducer a4-TAT-vFLIP (300 μg) on days 13 to 15. On day 16, the enhanced pause (PenH) variable was measured to determine airway hyperreactivity (AHR).
Increasing doses of methacholine, a muscarinic receptor agonist to induce AHR, was administered to the different treatment groups of mice and the PenH was determined. […] Ctrl group (dark triangles) after methacholine challenge. […] Therefore, the autophagy peptide inducer was able to reduce AHR after HDM challenge.

BALB/c mice [6] = experiment: OVA-induced AHR in BALB/c mice treated with autophagy inducers or inhibitor (whole body plethysmography, PenH); type: in vivo; conditions: i.p., DCMI 1 mg/kg, tamoxifen 100 μM, clonidine 0.1 mg/kg, carbamazepine 20 mg/kg, compared to OVA controls
Procedure: FIGS. 3A to 3E illustrate altered development of AHR and lung inflammation in BALB/c mice treated with autophagy inducers and inhibitor. FIG. 3A is a schematic for the sensitization and challenge protocol with administration of autophagy inhibitors and inducers via i.p. injection. FIGS. 3B and C show AHR was determined by whole body plethysmography and is expressed as mean PenH in the presence or absence of (FIG. 3B) autophagy inhibitor desmethylclomipramine (“DCMI”) 1 mg/kg or (FIG. 3C) autophagy inducers tamoxifen 100 μM, clonidine 0.1 mg/kg or carbamazepine 20 mg/kg. FIGS. 3D and E are a quantitative determination of cellular infiltration into BAL was determined by cytospin preparation in the presence or absence of (FIG. 3D) autophagy inhibitor and (FIG. 3E) autophagy inducers. Representative data from two independent experiments with 3 mice per group, expressed as mean±SEM. PBS refer to naïve BALB/c animals. Figure legend: Total: Total of number of cells in the BAL, PMN: polymorphonuclear cells, EOS: Eosinophils, MACRO: Macrophages, Lymph: Lymphocytes
Autophagy inducers (Carbamazepin, Tamoxifen, and Clonidine) and inhibitors (DCMI) were administered on days 10 to 13 (FIG. 9A). […] This was the opposite when treated with the autophagy inducers (Carbamazepin, Tamoxifen, and Clonidine) (FIG. 9C). Therefore, autophagy is an important mediator in AHR.
There are many reported small molecule inducers and inhibitors of autophagy (Balgi et al. (2009) PLoS One 4:e7124; Mizushima et al. (2006) Autophagy 2:302-304; Vooijs et al. (2001) EMBO Rep 2:292-297; Fujita et al. (2008) Mol Biol Cell 19:2092-2100; Kuma et al. (2004) Nature 432:1032-1036; Inoue et al. (2011) Biochem Biophys Res Commun 405:13-18). In preliminary studies, Applicant has used a range of different inducers (tamoxifen (Akbari et al. (2001) Nat Immunol 2:725-731), clonidine (Mizushima et al. (2006) Autophagy 2:302-304) and carbamazepine (Renna et al. (2010) J Biol Chem 285:11061-11067)) and one inhibitor (desmethylclomipramine (“DCMI”) (Balgi et al. (2009) PLoS One 4:e7124)). A standard sensitization and challenge protocol was used for the induction of AHR in BALB/c (FIG. 3A). […] This is in agreement with Applicant's findings using the Atg5Δ animals that inhibition of autophagy has a deleterious effect on lung function. When autophagy is induced (with tamoxifen, clonidine or carbamazepine) AHR after sensitization and challenge with OVA is reduced compared to controls (FIG. 3C). […] When autophagy is inhibited total cell numbers in the BAL are increased (FIG. 3D) in contrast, in the presence of autophagy inducers total cell numbers and in particular eosinophils are reduced (FIG. 3E).

BALB/c mice [7] = experiment: Cellular infiltration into BAL by cytospin preparation, OVA model; type: in vivo; conditions: OVA sensitized and challenged BALB/c, i.p. treatment
Procedure: FIGS. 3A to 3E illustrate altered development of AHR and lung inflammation in BALB/c mice treated with autophagy inducers and inhibitor. FIG. 3A is a schematic for the sensitization and challenge protocol with administration of autophagy inhibitors and inducers via i.p. injection. FIGS. 3B and C show AHR was determined by whole body plethysmography and is expressed as mean PenH in the presence or absence of (FIG. 3B) autophagy inhibitor desmethylclomipramine (“DCMI”) 1 mg/kg or (FIG. 3C) autophagy inducers tamoxifen 100 μM, clonidine 0.1 mg/kg or carbamazepine 20 mg/kg. FIGS. 3D and E are a quantitative determination of cellular infiltration into BAL was determined by cytospin preparation in the presence or absence of (FIG. 3D) autophagy inhibitor and (FIG. 3E) autophagy inducers. Representative data from two independent experiments with 3 mice per group, expressed as mean±SEM. PBS refer to naïve BALB/c animals. Figure legend: Total: Total of number of cells in the BAL, PMN: polymorphonuclear cells, EOS: Eosinophils, MACRO: Macrophages, Lymph: Lymphocytes […]

[8] = system: moderate to severe patients with asthma; conditions: clinical trial; cited from earlier work

In the case of “RRRQRRKKRGY-G-LMNSFVCLIVSS (RRRQRRKKRGYGLMNSFVCLIVSS) [a4-vFLIP, autophagy peptide inducer, 24aa TAT-fused α4 vFLIP peptide]”, the “AHR (PenH) after methacholine challenge” value (BALB/c mice [1]) is reported as “statistically significant reduction”, the “chronic AHR (PenH)” value (BALB/c mice [2]) is reported as “decreased levels of AHR” and the “Airway inflammation and remodeling (smooth muscle hyperplasia, epithelial cell proliferation, subepithelial fibrosis, basement membrane thickening)” value (BALB/c mice [3]) is reported as “decreased”. The “Airway inflammation and remodeling (smooth muscle hyperplasia, epithelial cell proliferation, subepithelial fibrosis, basement membrane thickening)” value (BALB/c mice [4]) was “decreased” and the “AHR (PenH) after methacholine challenge” value (BALB/c mice [5]) was “statistically significant reduction”.

With `Clc1cccc(Cl)c1N=C1NCCN1` [clonidine] the “AHR (mean PenH) after sensitization and challenge with OVA” value (from here on “AHR (mean PenH)”) (BALB/c mice [6]) was “reduced” and the “AHR (mean PenH)” value (BALB/c mice [6]; listed as Clonidine) was “opposite”.

For `CNCCCN1c2ccccc2CCc2ccc(Cl)cc21` [DCMI, desmethylclomipramine], the “total cell numbers in the BAL” value (BALB/c mice [7]) was “increased” and the “AHR (mean PenH)” value (BALB/c mice [6]) was “greatly increased; also recorded: significant increase”.

In the case of `CC/C(=C(\c1ccccc1)c1ccc(OCCN(C)C)cc1)c1ccccc1` [tamoxifen], the “AHR (mean PenH)” value (BALB/c mice [6]) is reported as “reduced” and the “AHR (mean PenH)” value (BALB/c mice [6]; listed as Tamoxifen) is reported as “opposite”.

In the case of `NC(=O)N1c2ccccc2C=Cc2ccccc21` [carbamazepine], the “AHR (mean PenH)” value (BALB/c mice [6]) is given as “reduced”, the “AHR (mean PenH)” value (BALB/c mice [6]; listed as Carbamazepin) is given as “opposite” and the “efficacy for the treatment of asthma” value [8] is given as “improve asthma; also recorded: high efficacy”.
